The source made the active and inactive calls. The calls are words filed in the database; no cut-off is given here.
Experiments:
[1] = AUC (0 to t) in Sprague-Dawley rat at 50 mg/kg, ip administered as single dose measured for 24 hrs by LC-MS/MS analysis; assay type: ADME, organism-based; design: dose 50 mg/kg, time 24 hrs, route ip; conditions: in vivo
[2] = In vivo induction of degradation of ALK in human KARPAS-299 cells xenografted in NCG mouse assessed as ALK protein expression in tumor at 10 mg/kg, iv administered as single dose measured after 24 hrs by immunoblot analysis relative to control; assay type: functional
[3] = Toxicity in NCG mouse xenografted with human KARPAS-299 cells assessed as liver damage at 10 mg/kg, iv administered once every day for 3 weeks by H and E staining based analysis; assay type: organism-based; conditions: in vivo, 504 h
[4] = Half life in Sprague-Dawley rat at 1 mg/kg, iv administered as single dose measured for 24 hrs by LC-MS/MS analysis; assay type: ADME, organism-based; conditions: in vivo
KARPAS-299 [5] = experiment: Antitumor activity against human KARPAS-299 cells xenografted in NCG mouse assessed as reduction in tumor weight at 25 to 50 mg/kg, ip administered once every day for 3 weeks and measured every 3 days; assay type: functional, organism-based; conditions: dose 25-50 mg/kg
KARPAS-299 [6] = experiment: Antitumor activity against human KARPAS-299 cells xenografted in NCG mouse assessed as increase in ALK protein degradation at 5 to 10 mg/kg, iv administered once every day for 3 weeks; assay type: functional, organism-based; conditions: dose 5-10 mg/kg
[7] = MRTlast in Sprague-Dawley rat at 50 mg/kg, ip administered as single dose measured for 24 hrs by LC-MS/MS analysis; assay type: ADME, organism-based; conditions: in vivo
KARPAS-299 [8] = experiment: Downregulation of jun-B protein expression in human KARPAS-299 cells at 1 uM incubated for 24 hrs by iTRAQ proteomics analysis; assay type: functional, cell-based
[9] = Cmax in Sprague-Dawley rat at 50 mg/kg, ip administered as single dose measured for 24 hrs by LC-MS/MS analysis; assay type: ADME, organism-based; design: dose 50 mg/kg, time 24 hrs, route ip; conditions: in vivo
[10] = In vivo induction of degradation of ALK in human KARPAS-299 cells xenografted in NCG mouse assessed as reduction in ALK protein expression in tumor at 10 mg/kg, iv administered as single dose measured after 12 hrs by immunoblot analysis relative to control; assay type: functional; design: scale not given: the % may be the effect or the level left
KARPAS-299 [11] = experiment: Antitumor activity against human KARPAS-299 cells xenografted in NCG mouse assessed as increase in ALK protein degradation at 25 to 50 mg/kg, ip administered once every day for 3 weeks; assay type: functional, organism-based; conditions: dose 25-50 mg/kg
[12] = Observed oral clearance in Sprague-Dawley rat at 50 mg/kg, ip administered as single dose measured for 24 hrs by LC-MS/MS analysis; assay type: ADME, organism-based; conditions: in vivo
BaF3 [13] = experiment: Antiproliferative activity against mouse BaF3 cells expressing wild type EML-ALK assessed as cell viability at 1 uM incubated for 72 hrs by Celltitre-Glo assay relative to control; assay type: functional; conditions: read-out: Activity
[14] = target: Protein cereblon/ALK tyrosine kinase receptor/Echinoderm microtubule-associated protein-like 4 (Homo sapiens, UniProt Q96SW2+Q9HC35+Q9UM73); experiment: Protac activity at CRBN/EML4-ALK in human NCI-H3122 cells assessed as induction of EML4-ALK fusion protein degradation incubated for 16 hrs by Western blot analysis; assay type: cell-based
KARPAS-299 [15] = experiment: Antiproliferative activity against ALK-positive human KARPAS-299 cells assessed as inhibition of cell proliferation measured after 72 hrs by MTT assay; assay type: functional, cell-based; conditions: KARPAS-299, 72 h
[16] = target: T1, ALK tyrosine kinase receptor (Homo sapiens, UniProt Q9UM73); experiment: Inhibition of ALK phosphorylation in human KARPAS-299 cells at 100 nM measured after 48 hrs by Western blot analysis; assay type: cell-based
T1 sequence (Q9UM73 19-1620 limits assumed): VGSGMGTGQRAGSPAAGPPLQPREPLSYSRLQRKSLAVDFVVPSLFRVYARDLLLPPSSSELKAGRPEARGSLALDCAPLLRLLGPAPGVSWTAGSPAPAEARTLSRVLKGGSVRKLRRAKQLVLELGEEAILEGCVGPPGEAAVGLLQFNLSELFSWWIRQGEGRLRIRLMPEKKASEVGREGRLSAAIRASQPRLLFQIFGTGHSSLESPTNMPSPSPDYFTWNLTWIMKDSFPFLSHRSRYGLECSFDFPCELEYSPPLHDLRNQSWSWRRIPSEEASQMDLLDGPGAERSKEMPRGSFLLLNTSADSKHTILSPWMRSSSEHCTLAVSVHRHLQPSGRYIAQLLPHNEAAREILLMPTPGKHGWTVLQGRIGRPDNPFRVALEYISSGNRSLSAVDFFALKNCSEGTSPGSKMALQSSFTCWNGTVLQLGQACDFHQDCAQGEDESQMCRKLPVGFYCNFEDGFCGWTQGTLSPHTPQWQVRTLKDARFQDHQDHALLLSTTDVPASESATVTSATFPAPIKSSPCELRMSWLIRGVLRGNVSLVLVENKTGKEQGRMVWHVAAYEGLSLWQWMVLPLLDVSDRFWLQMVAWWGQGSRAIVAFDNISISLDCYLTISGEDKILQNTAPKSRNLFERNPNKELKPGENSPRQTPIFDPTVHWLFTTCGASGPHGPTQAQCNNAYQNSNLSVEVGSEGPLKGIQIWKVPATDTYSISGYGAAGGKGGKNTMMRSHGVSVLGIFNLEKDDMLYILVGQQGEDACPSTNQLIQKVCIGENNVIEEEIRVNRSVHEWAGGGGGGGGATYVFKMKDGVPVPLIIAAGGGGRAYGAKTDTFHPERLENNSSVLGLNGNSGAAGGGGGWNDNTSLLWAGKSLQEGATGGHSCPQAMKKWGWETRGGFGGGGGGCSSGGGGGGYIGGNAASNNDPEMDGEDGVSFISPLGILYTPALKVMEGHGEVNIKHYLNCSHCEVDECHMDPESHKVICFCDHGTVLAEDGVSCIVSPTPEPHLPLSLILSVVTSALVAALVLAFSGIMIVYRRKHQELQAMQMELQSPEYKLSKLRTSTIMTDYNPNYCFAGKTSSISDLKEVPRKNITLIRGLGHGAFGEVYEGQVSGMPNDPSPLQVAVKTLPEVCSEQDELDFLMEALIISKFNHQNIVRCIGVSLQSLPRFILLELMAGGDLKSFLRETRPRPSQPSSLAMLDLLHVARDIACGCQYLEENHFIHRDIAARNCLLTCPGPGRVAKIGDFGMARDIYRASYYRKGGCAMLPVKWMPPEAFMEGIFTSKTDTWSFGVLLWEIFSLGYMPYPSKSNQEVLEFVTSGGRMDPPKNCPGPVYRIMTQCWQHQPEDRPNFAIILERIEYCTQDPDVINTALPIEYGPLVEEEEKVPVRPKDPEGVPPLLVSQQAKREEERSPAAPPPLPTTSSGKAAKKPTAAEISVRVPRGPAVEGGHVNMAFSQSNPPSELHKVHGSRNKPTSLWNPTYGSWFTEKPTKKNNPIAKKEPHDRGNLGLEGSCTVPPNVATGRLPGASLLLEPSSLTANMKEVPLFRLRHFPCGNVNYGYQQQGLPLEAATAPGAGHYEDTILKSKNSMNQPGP

[17] = Volume of distribution in Sprague-Dawley rat at 1 mg/kg, iv administered as single dose measured for 24 hrs by LC-MS/MS analysis; assay type: ADME, organism-based; conditions: in vivo
[18] = Toxicity in NCG mouse xenografted with human KARPAS-299 cells assessed as body weight loss at 10 mg/kg, iv administered once every day for 3 weeks; assay type: organism-based; conditions: in vivo, 504 h
[19] = target: Protein cereblon/ALK tyrosine kinase receptor/Nucleophosmin (Homo sapiens) (UniProt Q9UM73+P06748+Q96SW2); experiment: Protac activity at CRBN/NPM-ALK in human KARPAS-299 cells assessed as induction of NPM-ALK fusion protein degradation at 2 uM incubated for 24 hrs by Western blot analysis; assay type: cell-based
Sequence of Protein cereblon/ALK tyrosine kinase receptor/Nucleophosmin (Homo sapiens) (P06748 whole entry partner, the tested form may be a part): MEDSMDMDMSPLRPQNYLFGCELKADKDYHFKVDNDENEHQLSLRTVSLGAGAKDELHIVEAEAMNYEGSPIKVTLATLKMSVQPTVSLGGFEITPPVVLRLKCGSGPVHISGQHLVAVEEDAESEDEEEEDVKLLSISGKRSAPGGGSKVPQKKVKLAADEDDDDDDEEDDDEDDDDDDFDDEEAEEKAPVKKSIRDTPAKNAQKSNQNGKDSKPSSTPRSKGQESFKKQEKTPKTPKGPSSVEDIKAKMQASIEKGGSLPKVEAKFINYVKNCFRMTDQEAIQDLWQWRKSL
Sequence of Protein cereblon/ALK tyrosine kinase receptor/Nucleophosmin (Homo sapiens) (Q96SW2 whole entry partner, the tested form may be a part): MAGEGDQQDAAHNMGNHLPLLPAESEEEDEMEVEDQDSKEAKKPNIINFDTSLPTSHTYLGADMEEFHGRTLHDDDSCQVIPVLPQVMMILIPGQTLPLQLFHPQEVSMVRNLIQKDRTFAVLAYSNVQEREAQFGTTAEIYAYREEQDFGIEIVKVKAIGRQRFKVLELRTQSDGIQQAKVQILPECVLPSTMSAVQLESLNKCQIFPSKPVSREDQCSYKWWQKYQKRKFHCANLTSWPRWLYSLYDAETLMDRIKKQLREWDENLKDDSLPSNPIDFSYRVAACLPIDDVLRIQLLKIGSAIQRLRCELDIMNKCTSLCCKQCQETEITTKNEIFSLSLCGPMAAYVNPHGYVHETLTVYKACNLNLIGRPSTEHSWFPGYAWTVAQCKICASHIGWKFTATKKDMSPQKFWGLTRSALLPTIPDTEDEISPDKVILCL
Sequence of Protein cereblon/ALK tyrosine kinase receptor/Nucleophosmin (Homo sapiens) (Q9UM73 19-1620 limits assumed): as the sequence (Q9UM73 19-1620 limits assumed) above

BaF3 [20] = experiment: Antiproliferative activity against mouse BaF3 cells assessed as cell viability at 1 uM incubated for 72 hrs by Celltitre-Glo assay relative to control; assay type: functional; conditions: read-out: Activity
KARPAS-299 [21] = experiment: Antitumor activity against human KARPAS-299 cells xenografted in NCG mouse assessed as reduction in tumor volume at 5 to 10 mg/kg, iv administered once every day for 3 weeks and measured every 3 days; assay type: functional, organism-based; conditions: dose 5-10 mg/kg
[22] = target: T1, ALK tyrosine kinase receptor; experiment: Inhibition of ALK phosphorylation in human KARPAS-299 cells at 1 uM incubated for 24 hrs followed by compound washout and measured after 72 hrs by Western blot analysis; assay type: cell-based
BaF3 [23] = experiment: Antiproliferative activity against crizotinib-resistant mouse BaF3 cells expressing EML-ALK L1152R mutant assessed as cell viability at 1 uM incubated for 72 hrs by Celltitre-Glo assay relative to control; assay type: functional; conditions: read-out: Activity
BaF3 [24] = experiment: Antiproliferative activity against crizotinib-resistant mouse BaF3 cells expressing EML-ALK G1202R mutant assessed as cell viability at 1 uM incubated for 72 hrs by Celltitre-Glo assay relative to control; assay type: functional; conditions: read-out: Activity

- AUC(0-t) at 24 h [1]: 546 ng·h/mL
- half-life [4]: 25.2 min
- MRT last at 24 h [7]: 9.93 h
- Cmax [9]: 109 ng/mL
- CL/F [12]: 743 mL/min/kg
- EC50 [14]: 27.4 nM
- IC50 (KARPAS-299 [15]): 42 nM
- inhibition [16]: Active
- Vd [17]: 3.89 L/kg
- Activity [19]: Active
- inhibition [22]: Active
SMILES: CCc1cc2c(cc1N1CCN(C(=O)CNc3cccc4c3C(=O)N(C3CCC(=O)NC3=O)C4=O)CC1)C(C)(C)c1[nH]c3cc(C#N)ccc3c1C2=O (centres undefined)
- Activity [2]: 18.7%
- Activity [3]: Non-Toxic
- Activity (KARPAS-299 [5]): Active
- Activity (KARPAS-299 [6]): Active
- Activity (KARPAS-299 [8]): Active
- Activity [10]: >85%
- Activity (KARPAS-299 [11]): Active
- viability at 1 µM (BaF3 [13]): 0.1%
- Activity [18]: Non-Toxic
- viability at 1 µM (BaF3 [20]): 116%
- Activity (KARPAS-299 [21]): Active
- viability at 1 µM (BaF3 [23]): 0.1%
- viability at 1 µM (BaF3 [24]): 77.6%

From ChEMBL document CHEMBL5096194, “Development of Alectinib-Based PROTACs as Novel Potent Degraders of Anaplastic Lymphoma Kinase (ALK)” (J Med Chem, 2021)
